Measured values: PMC12597529, “Interaction between W41 of the hepatitis B virus preS1 surface peptide and Y146/F274 of the cellular receptor molecule Na^+/taurocholate co-transporting polypeptide is essential for virus entry” (Molecular Pharmacology, 2025)
Where a chain is given by its changes, count along the chain named. Names may count otherwise. “And” between values parts separate entries of the source, which are not always exact repeats. Equal values may be shown once. Read-outs that look alike come from different tables or passages of the source. Ends that are not written are not given here. * marks the point of attachment. Myristoyl = CCCCCCCCCCCCCC(=O)*

Legend:
NTCP = conditions: most of these compounds, cited from earlier work
Source text: The hepatitis B virus (HBV) belongs to the family of Hepadnaviridae. Its DNA genome encodes 3 surface proteins (HBs), namely small HBs, middle HBs, and large HBs.[1] The hepatitis D virus (HDV) is a small negative-sense RNA satellite virus and depends on the HBV envelope for entry into hepatocytes, assembly, and secretion of newly formed virions.[2] […] HBV/HDV attachment to NTCP occurs via the myristoylated preS1 domain (myr-pre ...

[1] = system: NTCPwt and NTCP-Y146A/F274A; test: myr-preS1-AX568 peptide binding assay, NTCPwt-HEK293 vs NTCP-Y146A/F274A-HEK293 cells; set-up: species or system human; conditions: 5 to 160 nM, 37 °C, fluorescence, quadruplicate determinations, two-way ANOVA P < .01
Protocol: T-Rex Flp-In human embryonic kidney (HEK293) cells (Thermo Fisher Scientific; RRID CVCL_0045) were grown in 1:1 Dulbecco’s modified Eagle medium (DMEM)/Ham’s F12 (Gibco). Both media were supplemented with 10% fetal calf serum (Gibco), L-glutamine 4 mM (Gibco), penicillin 100 U/mL (Carl Roth), and streptomycin 100 μg/mL (Carl Roth). Stably transfected T-Rex Flp-In HEK293 cells were selected with 100 μg/mL hygromycin (Carl Roth). Expression of the recombinant NTCP proteins was induced with 5 μg/mL tetracycline treatment for 72 hours. All cell lines were cultivated in 5% CO2 atmosphere at 37 °C. Cell lines were routinely checked for possible mycoplasma contamination. […]
To study the HBV receptor function of NTCP, NTCPwt-HEK293 and NTCP-Y146A/F274A-HEK293 cells were incubated with the C-terminally Alexa 568 fluorophore-coupled myr-preS1 peptide (further referred to as myr-preS1-AX568), which consists of amino acids 2 to 48 of the large HBV genotype D3 surface protein (Biosynthesis). […] Myr-preS1-AX568 peptide binding was analyzed using Leica DMI6000 B inverted fluorescent microscope and LAS X software, or fluorescence was quantified with Spark multimode microplate reader (Spark Multimode Microplate, Tecan) (excitation: 570 nm, emission: 615 nm). […] Cell-associated radioactivity was quantified by liquid scintillation counting in a Packard Microplate Scintillation Counter TopCount NXT.

NTCP variants = conditions: cited from earlier work
Source text: This is exemplified by the genetic c.800G>A variant (rs2296651) that is frequent in East Asian populations and that leads to S267F mutation of NTCP inside the tunnel structure. […] More detailed analysis ... || Interaction site A is formed between F13 and F14 of myr-preS1 and the amino acids Q264, F283, F284, and L287 (TM8b, EL4, and TM9) as well as F18 (TM1) of NTCP; interaction sites B between F23 of myr-preS1 and V29 and V32 of NTCP; and interaction site C between K38, D39, H40, and W41 of myr-preS1 and A273, F274, and P275 (TM8b, EL4, and TM9) as well as Y146 (of EL2) of NTCP. For some of these amino acids, mutation studies confirmed their role for the myr-preS1 interaction. […] However, this domain also covers the surface of NTCP and not the tunnel structure. Within the published structures N87 forms hydrogen binds with E43 and K46 of the myr-preS1 string structure, while for the NTCP amino acid residues 84 to 86 no interactions with the myr-preS1 peptide could be detected. As mouse Ntcp with the corresponding residues 84HLTS87 has S ...

[2] = target: T1, human Na+/taurocholate co-transporting polypeptide, wild type, FLAG-tagged, on NTCPwt-HEK293 cells (human, UniProt Q14973 1-349); test: cell-based or functional assay
T1 sequence (looked up): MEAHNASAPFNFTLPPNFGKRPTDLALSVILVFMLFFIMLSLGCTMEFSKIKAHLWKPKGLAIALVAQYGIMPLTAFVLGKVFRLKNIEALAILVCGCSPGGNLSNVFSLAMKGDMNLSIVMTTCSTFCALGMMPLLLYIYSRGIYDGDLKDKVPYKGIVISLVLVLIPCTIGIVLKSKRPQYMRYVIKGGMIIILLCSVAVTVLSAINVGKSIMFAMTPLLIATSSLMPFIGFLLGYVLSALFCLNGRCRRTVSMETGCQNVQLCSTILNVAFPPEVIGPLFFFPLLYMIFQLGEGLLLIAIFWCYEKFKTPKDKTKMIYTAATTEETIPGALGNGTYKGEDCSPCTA

[3] = target: T1, human Na+/taurocholate co-transporting …; test: radioligand binding; competition: 5 nM [3H]preS1 on tetracycline-induced NTCP-HEK293 cells in 96-well plates, 10 minutes at 37 °C in DMEM, after preincubation with increasing concentrations of unlabelled peptide; cells without tetracycline as 0% control; liquid scintillation counting; 2 independent experiments; conditions: one partner purified

In the case of `C=C(C)[C@@H]1CC[C@]2(C(=O)O)CC[C@]3(C)[C@H](CC[C@@H]4[C@@]5(C)CC[C@H](O)C(C)(C)[C@@H]5CC[C@]43C)[C@@H]12` [betulinic acid], the “NTCP inhibition, selectivity virus binding vs bile acid transport” value (NTCP; plant-derived compounds) is listed as “block NTCP in a nonselective manner”.

In the case of `CCCCCCCCCc1cc(OC(=O)c2c(CCCCCCCCC)cc(O)cc2OC2OC(CO)C(O)C(O)C2O)cc(O)c1C(=O)O` (stereo not drawn) [exophillic acid], the “NTCP inhibition, selectivity virus binding vs bile acid transport” value (NTCP; plant-derived compounds) is given as “block NTCP in a nonselective manner”.

In the case of `O=C1[C@H](CC[C@H](O)c2ccc(F)cc2)[C@@H](c2ccc(O)cc2)N1c1ccc(F)cc1` [ezetimibe], the “NTCP inhibition, selectivity virus binding vs bile acid transport” value (NTCP; approved drugs) is listed as “block NTCP in a nonselective manner”.

In the case of `CCCCC1=NC2(CCCC2)C(=O)N1Cc1ccc(-c2ccccc2-c2nnn[nH]2)cc1` [irbesartan], the “NTCP inhibition, selectivity virus binding vs bile acid transport” value (NTCP; approved drugs) is given as “block NTCP in a nonselective manner”.

In the case of `CC[C@H]1[C@@H](O)[C@@H]2[C@H](CC[C@]3(C)[C@@H]([C@H](C)CCC(=O)O)CC[C@@H]23)[C@@]2(C)CC[C@@H](O)C[C@@H]12` [obeticholic acid], the “NTCP inhibition, selectivity virus binding vs bile acid transport” value (NTCP; bile acid derivatives) is listed as “block NTCP in a nonselective manner”.

In the case of `CC(C)c1nc(CN(C)C(=O)N[C@H](C(=O)N[C@@H](Cc2ccccc2)C[C@H](O)[C@H](Cc2ccccc2)NC(=O)OCc2cncs2)C(C)C)cs1` [ritonavir], the “NTCP inhibition, selectivity virus binding vs bile acid transport” value (NTCP; approved drugs) is listed as “block NTCP in a nonselective manner”.

In the case of `CN(CCOc1ccc(CC2SC(=O)NC2=O)cc1)c1ccccn1` (stereo not drawn) [rosiglitazone], the “NTCP inhibition, selectivity virus binding vs bile acid transport” value (NTCP; approved drugs) is given as “block NTCP in a nonselective manner”.

For `CCC(C)CC(C)C(=O)OC1(C)C(=O)c2c(cc(O)c3c2CC(O)CC3C)C(C)(O)C1=O` (stereo not drawn) [vanitaracin A], the “NTCP inhibition, selectivity virus binding vs bile acid transport” value (NTCP; plant-derived compounds) is given as “block NTCP in a nonselective manner”.

In the case of “myr-preS1-AX568: C-terminally Alexa 568 fluorophore-coupled myr-preS1 peptide, amino acids 2 to 48 of the large HBV genotype D3 surface protein (Myristoyl-GQNLSTSNPLGFFPDHQLDPAFRANTANPDWDFNPNKDTWPDANKVG-{Alexa 568}; also: myristoylated (myr-preS1))”, the “binding to the Y146A/F274A NTCP mutant compared with NTCPwt” value [1] is reported as “much lower binding to the NTCP-Y146A/F274A mutant compared with NTCPwt”.

For “myr-preS1: myristoylated preS1 domain of the HBV large surface protein (Myristoyl-GQNLSTSNPLGFFPDHQLDPAFRANTANPDWDFNPNKDTWPDANKVG)”, the myr-preS1 binding (NTCP variants; 84 to 87 humanized construct of mouse Ntcp) is given as “did not only bind myr-preS1 but also supported infection”, the myr-preS1 binding (NTCP variants; 158R NTCP variant found in OWM) is given as “resistant to myr-preS1 binding” and the myr-preS1 binding (NTCP variants; NTCP Q264A mutant, bile acid transport retained) is given as “significantly reduced myr-preS1 binding”. The myr-preS1 binding (NTCP variants; NTCP V272W mutant, intact bile acids transport) was “significantly reduced myr-preS1 binding” and the myr-preS1 binding (NTCP variants; R158G mutation of OWM Ntcp) was “sufficient to support myr-preS1 binding”.

B1: wild-type myr-preS1 peptide of HBV genotype D (unlabelled) (peptide)
peptide: GQNLSTSNPLGFFPDHQLDPAFRANTANPDWDFNPNKDTWPDANKVG
modifications: not fully specified (N-terminus); also: myristoylated (myr-preS1)
notes: also called myr-preS1 WT; wild-type myr-preS1 peptide (genotype D)
For B1, the “inhibition of [3H]TCA (1 μM) transport via NTCP in NTCP-HEK293 cells, 10 minutes at 37 °C, IC50” value [2] was 111 nM and 221 nM and the IC50 [3] was 99 nM and 168 nM.

B2: W41G mutant myr-preS1 peptide of HBV genotype D (peptide)
peptide: B1 peptide with W40G
modifications: not fully specified (N-terminus); also: myristoylated (myr-preS1)
notes: also called myr-preS1-W41G; myr-preS1 W41G peptide; source: bought: ProteoGenix S.A.S
With B2 the “inhibition of [3H]TCA (1 μM) transport via NTCP in NTCP-HEK293 cells, 10 minutes at 37 °C, IC50” value [2] was 386 nM and 397 nM and the IC50 [3] was 422 nM and 298 nM.
